Measurements: ChEMBL document CHEMBL5252612, “A novel selective estrogen receptor degrader induces cell cycle arrest in breast cancer via ERα degradation and the autophagy-lysosome pathway” (Bioorg Med Chem, 2023)
Activity calls are given as the source filed them. The calls are words filed in the database; no cut-off is given here.

Columns and labels:
MCF7 [1] = assay: Antitumor activity against human MCF7 cells xenografted in BALB/c nude mouse assessed as reduction in Ki67 expression in tumor at 2 to 4 mg/kg, ip administered every other day by immunohistochemistry; format: functional, organism-based; conditions: dose 2-4 mg/kg
T47D [2] = assay: Induction of autophagy in human T47D cells assessed as downregulation of MYC protein expression at 5 to 10 uM incubated for 24 hrs in presence of autophagy inhibitor, CQ by western blot analysis; format: functional, cell-based; conditions: dose 5-10 µM
T47D [3] = assay: Inhibition of colony formation in human T47D cells at 10 uM incubated for 14 days in presence of autophagy inhibitor, 3-MA by crystal violet staining based analysis; format: functional, cell-based; conditions: time 14.0 day
T47D [4] = assay: Induction of cell cycle arrest in human T47D cells transfected with empty vector assessed as proportion of cells at G2 phase at 10 uM incubated for 24 hrs by flow cytometry (reference value: 53%); format: functional
[5] = Toxicity in BALB/c nude mouse xenografted with human MCF7 cells assessed as kidney cell morphological changes at 2 to 4 mg/kg, ip administered every other day by Hematoxylin and eosin staining based analysis; format: organism-based; conditions: in vivo, dose 2-4 mg/kg
T47D [6] = assay: Induction of cell cycle arrest in human T47D cells assessed as proportion of cells at S phase at 1 uM incubated for 24 hrs by flow cytometry (reference value: 15.3%); format: functional
T47D [7] = assay: Induction of autophagy in human T47D cells assessed as increase in LC3 puncta formation at 1 to 10 uM incubated for 24 hrs in presence of chloroquine by immunofluorescence assay; format: functional, cell-based; conditions: dose 1-10 µM
MCF7 [8] = assay: Antitumor activity against human MCF7 cells xenografted in BALB/c nude mouse assessed as reduction in tumor weight at 2 to 4 mg/kg, ip administered every other day; format: functional, organism-based; conditions: dose 2-4 mg/kg
T47D [9] = assay: Induction of autophagy in human T47D cells assessed as increase in LC3 puncta formation at 1 to 10 uM incubated for 24 hrs by immunofluorescence assay; format: functional, cell-based; conditions: dose 1-10 µM
[10] = biological target: T1, Estrogen receptor (Homo sapiens) (UniProt P03372); assay: Induction of ER-alpha degradation in human T47D cells assessed as decrease in ER-alpha protein expression in presence of autophagy inhibitor, CQ by western blot analysis; format: cell-based
T1 sequence (whole entry): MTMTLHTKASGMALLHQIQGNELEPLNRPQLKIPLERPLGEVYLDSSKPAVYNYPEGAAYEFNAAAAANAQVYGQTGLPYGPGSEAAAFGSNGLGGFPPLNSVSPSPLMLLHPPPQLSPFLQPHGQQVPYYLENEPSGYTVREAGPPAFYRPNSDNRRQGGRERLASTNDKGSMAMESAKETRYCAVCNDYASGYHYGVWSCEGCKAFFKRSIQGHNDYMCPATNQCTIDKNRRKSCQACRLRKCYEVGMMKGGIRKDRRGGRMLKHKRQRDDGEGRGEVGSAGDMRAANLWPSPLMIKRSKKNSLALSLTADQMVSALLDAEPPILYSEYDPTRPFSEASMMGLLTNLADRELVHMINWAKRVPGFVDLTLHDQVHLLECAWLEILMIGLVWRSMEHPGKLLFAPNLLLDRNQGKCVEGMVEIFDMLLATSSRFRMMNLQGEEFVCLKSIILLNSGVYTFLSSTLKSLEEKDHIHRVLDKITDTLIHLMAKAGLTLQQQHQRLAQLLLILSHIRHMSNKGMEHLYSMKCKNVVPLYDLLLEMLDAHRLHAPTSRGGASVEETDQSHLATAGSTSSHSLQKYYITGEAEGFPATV

T47D [11] = assay: Induction of cell cycle arrest in human T47D cells overexpressing MYC assessed as proportion of cells at S phase at 10 uM incubated for 24 hrs by flow cytometry (reference value: 24.2%); format: functional
T47D [12] = assay: Induction of autophagy in human T47D cells assessed as upregulation of LAMP2 protein expression at 10 uM incubated for 24 hrs by western blot analysis; format: functional, cell-based
[13] = Induction of cell cycle arrest in tamoxifen-resistant human LCC2 cells assessed as proportion of cells at S phase at 1 uM by flow cytometry (reference value: 28.4%); format: functional
T47D [14] = assay: Anticancer activity against ER-alpha positive human T47D cells assessed as reduction in cell viability measured after 48 hrs by CCK8 assay; format: functional, cell-based
T47D [15] = assay: Induction of cell cycle arrest in human T47D cells assessed as proportion of cells at G1 phase at 5 uM incubated for 24 hrs by flow cytometry (reference value: 66.6%); format: functional
[16] = biological target: T1, Estrogen receptor (Homo sapiens); assay: Induction of ER-alpha degradation in human T47D cells assessed as decrease in MYC protein expression at 10 uM incubated for 24 hrs by western blot analysis; format: cell-based
[17] = Induction of cell cycle arrest in tamoxifen-resistant human LCC2 cells assessed as proportion of cells at G1 phase at 1 uM by flow cytometry (reference value: 47.4%); format: functional
T47D [18] = assay: Induction of autophagy in human T47D cells overexpressing ESR1 assessed as increase in LC3 protein expression by western blot analysis; format: functional, cell-based
T47D [19] = assay: Induction of autophagy in human T47D cells overexpressing ESR1 assessed as increase in lysosome number by LysoTracker dye based confocal microscopy; format: functional, cell-based
T47D [20] = assay: Induction of autophagy in human T47D cells assessed as upregulation of CTSD protein expression at 10 uM incubated for 24 hrs by western blot analysis; format: functional, cell-based
T47D [21] = assay: Induction of cell cycle arrest in human T47D cells assessed as proportion of cells at G2 phase at 5 uM incubated for 24 hrs by flow cytometry (reference value: 24.4%); format: functional

## COc1ccc(N(CC(F)(F)F)S(=O)(=O)C2CC3OC2C(c2ccc(OCCN4CCCC4)cc2)=C3c2ccc(O)cc2)cc1 (configuration not stated)
MCF7 [1]
  Activity: Active
T47D [2]
  Activity: inactive
T47D [3]
  inhibition: inactive
T47D [4]
  Activity: 33.7%
[5]
  Activity: Non-Toxic
T47D [6]
  Activity: 9.47%
T47D [7]
  Activity: Active
MCF7 [8]
  Activity: Active
T47D [9]
  Activity: Active
[10]
  Activity: Active
T47D [11]
  Activity: 22.6%
T47D [12]
  Activity: Active
[13]
  Activity: 19.6%
T47D [14]
  Activity: Dose-Dependent Effect
  IC50: 18.1 µM
T47D [15]
  Activity: 76.8%
[16]
  Activity: Active
[17]
  Activity: 63.9%
T47D [18]
  Activity: Active
T47D [19]
  Activity: Active
T47D [20]
  Activity: Active
T47D [21]
  Activity: 16.2%
